Test results published in paper PMC11062894, “Protein-based bandpass filters for controlling cellular signaling with chemical inputs” (Nature Chemical Biology, 2023).

Tested on: HEK293T cells
Assay type: cell-based
Details: 10 µM A-1155463
Text: drug controlled switches. […]
drug competition assay. This assay is designed to test if the drug of interest can specifically disrupt the interaction between LD3 and BclXL/Bcl2. The drug-receptors (Bcl2, BclXL) are immobilized on the different channels of the sensor chip, then the binding sites are saturated with LD3. While the flux of A-1155463 (red) flows through the sensor chip, the loss of signal is used to monitor the dissociation of the protein complex. b) Drug effects on reporter protein expression of HEK293T cells. HEK293T cells were transfected with a plasmid for constitutive SEAP production and incubated with indicated drugs for 24 hours. SEAP quantifications were performed to measure the protein production and WST-8 was used to test the cell proliferation. Each bar represents the mean of six biological replicates ± s.d., overlaid with a scatter dot plot of the original data points. […]
was added after 24 hours of drug incubation, and measured for absorbance at 450 nm 4 hours later. […]
production of HEK293T cells. […] SEAP quantifications were performed to measure the protein production and WST-8 was used to test the cell proliferation. For cell proliferation assay, WST-8 was added after 24 hours of drug incubation, and measured its absorbance at 450 nm 4 hours later. […]
ranging from 1 pM to 1 µM were added 12 hours post-transfection, then SEAP was measured 24 hours […]

CN(C)CC#Cc1ccc(OCCCc2sc(N3CCc4cccc(C(=O)Nc5nc6ccccc6s5)c4C3)nc2C(=O)O)c(F)c1 [A-1155463]
effect on cell survival: does not perturb | effect on reporter gene expression: does not perturb
